In patent publication US12404332B2, “Methods for diagnosing and treating cancers” (Research Development Foundation, priority 2020, dated 2025):

Tests used:
PD-L1 = experiment: Tumor cell PD-L1 depletion by drugs (flow cytometry, immunoblot); format: cell-based, human and mouse; settings: summary statement
Procedure: High throughput Screening: B16 PD-L1 RFP cells were treated with 2.5 and 10 μM compounds from the Prestwick and LOPAC Libraries for 48 hours using the Agilent Bravo liquid pipetting platform. Then, cells were washed with PBS, and fixed with 4% paraformaldehyde (Electron Microscopy Sciences, Hatsfield, PA, Cat 15714S) and labeled with 2 μg/ml DAPI, (Molecular Probes, Cat D1306) and 1 μg/ml Cell Mask-Blue (Invitrogen, Cat. H32720). Plates were then imaged using the Operetta High Content Imaging System, Perkin Elmer, Waltham (DAPI and Cell Mask Blue, Ex 360-400, Em 410-480), and the RFP channels (Ex 520-550, Em 560-630) channels. Agents effecting ≥2-fold PD-L1 reduction in the RFP reporter without loss of ≥20% cell viability were candidate PD-L1 depletion agents.
Flow cytometry: Mice were sacrificed by cervical dislocation after induction of deep isoflurane anesthesia. ID8agg tumors were collected and cells were stained as described (Derup et al., 2020) using LSR II hardware and analyzed by FACS Diva (BD Bioscience) or Flow Jo software (Flow Jo, LLC). Anti-mouse (clone 10F.9G2) and human (clone 29E.2A3) PD-L1 [both PE/Cy7, Cat #124314 (mouse) 329718 (human)] were matched with isotype control. Apoptosis assessment used Annexin V and propidium iodide (Thermo Scientific) per manufacturer instruction.
Western blotting and immunoprecipitation: To prepare whole cell lysates, cells were harvested and lysed in RIPA (radioimmunoprecipitation assay) buffer plus 1 mM phenylmethylsulphonyl fluoride and Halt protease/phosphatase inhibitor cocktail (Thermo Scientific) at 4° C. Protein concentrations were measured by BCA Protein Assay Kit (Thermo Scientific). Protein was run on precast 4-15% sodium dodecyl sulfate polyacrylamide gels (Bio-Rad), transferred to polyvinylidene fluoride membranes (GE Water and Process Technologies), and then blocked in 5% non-fat milk for 1 hour at room temperature. The membranes were then incubated with 1:1000 diluted primary antibodies against indicated proteins (Cell Signaling). Specific antibody binding was detected by chemiluminescence using Western Lightening Plus regent (Perkin Elmer). Cells for (co) immunoprecipitation experiments were seeded in 15-cm dishes and cultured as described, using 6 million cells per immunoprecipitation reaction. For protein ubiquitination, cells were lysed in denaturing buffer (50 mM Tris-HCl, 0.5 mM EDTA and 1% SDS) followed by heating at 95° C. for 10 minutes and then quenched with 9 volumes of quenching buffer (0.5% Triton X-100, 20 mM Tris-HCl (pH 8.0), 137 mM NaCl, 10% glycerol, 2 mM EDTA). Protease inhibitor cocktail (Roche) was added fresh to all buffers. Cell lysates were incubated on a rotator for 30 minutes at 4° C., and then centrifuged at 20,000 g for 15 minutes at 4° C. Supernatants were subsequently incubated with anti-PD-L1 antibody overnight and processed using Dynabeads Protein G for Immunoprecipitation (Thermo Fisher Scientific). The final eluate was processed and Western blotting was performed.

RT4 cells = experiment: Chk1 inhibitor synthetic lethality with beta-lactam antibiotics, RT4 cells; format: cell-based, human
Procedure: (§1) Additional experiments were performed, as follows. MB49 were plated at 2,000 cells/well in 96 well flat bottom plates and treated with PD-L1 depleting drugs, olaparib (2.5 μM), and combination for 96 hours. RT4 were plated at 2,000 cells/well in 96 well flat bottom plates and treated with cefepime, rabusertib (1 μM), praxasertib, or combination for 96 hours. ID8agg, 4T1, and B16 cells were plated on fibronectin at 500 cells/well and treated with cefepime, rabusertib, or combination for 96 hours. Normalized treatment combination to DDR inhibitor alone, and PD-L1 depleting drug to vehicle alone (DMSO) were evaluated.

ID8agg cells = experiment: Chk1 inhibitor synthetic lethality with ceftazidime, ID8agg cells; format: cell-based, mouse
Procedure: as §1

CC(C)(O/N=C(\C(=O)N[C@@H]1C(=O)N2C(C(=O)[O-])=C(C[n+]3ccccc3)CS[C@H]12)c1csc(N)n1)C(=O)O [ceftazidime]
expression of PD-L1 in cancer cells (PD-L1): decreased expression of PD-L1 | PD-L1 dependence of synthetic lethality (RT4 cells; FIG. 47B): PD-L1 dependent | synthetic lethality with Chk1i (RT4 cells; RT4 cells, Chk1i rabusertib): induce synthetic lethality | synthetic lethality with Chk1i (ID8agg cells): induce synthetic lethality
